Values of other authors, collected in patent US20060188579A1, “Novel process” (priority 2003, published 2006).

Conditions: particles produced by the method of WO00/38811; lowest value ('down to')

Nc1cnc(-c2cc(Cl)cc(Cl)c2Cl)c(N)n1 [2,6-diamino-3-(2,3,5-trichlorophenyl)pyrazine]
dv(0.5): 1.64 μm
